{"source": "patent US11484599B2", "about": "“Polymer conjugate vaccines” (The University of Chicago, priority 2015, dated 2022)", "key": {"[1]": {"test_system": "OVA-specific immune response", "test": "OVA vaccination day 0 and 28, humoral immune response", "format": "in vivo, mice", "protocol": "(§1) Mice were immunized on day 0 and 28 with one of […] formulations: 1.) 10 μg of OVA+30 μg, 2.) p(Man-TLR) (30 μg equivalent of TLR7-MA), 3.) 10 μg of OVA and unconjugated p(Man-TLR) (30 μg equivalent of TLR7-MA), 4.) 10 μg of OVA-p(Man) conjugate with 30 μg of TLR7-MA, or 5.) 10 μg of OVA-p(Man-TLR).\nIn order to initiate protection against extracellular microorganisms and to prevent the spread of intracellular infections, effective vaccines preferably induce a strong humoral immune response. The ability of OVA-p(Man-TLR) to mount an effective humoral immune response was analyzed by determining the percentage of T follicular helper (Tfh) cells in the LN and spleen, the number of antigen specific plasma cells in the spleen, and the OVA specific antibody titers of vaccinated mice. […] Given these impressive results, we analyzed the blood of vaccinated animals for total OVA-specific IgG titers as well as OVA-specific IgG2C titers."}, "DCs (CD11c+ cells)": {"test_system": "DCs (CD11c+ cells)", "test": "Example 10: in vivo DC activation in draining lymph nodes after footpad injection", "parameters": "species or system mice", "conditions": "footpads, 50 μg fluorescently-labeled OVA, 24 h", "source_text": "Activation is highest in DCs that collect the formulation and thus are also antigen-positive. Thus, both antigen and adjuvant are co-delivered to the same DCs, which are then the cells that are activated. This is one of the benefits of selecting TLR7 as an adjuvant target, based on its intracellular, endosomal localization.\nIn order to be an effective adjuvant/delivery system for vaccine development, p(Man-TLR) conjugates preferably target antigens to APCs and activate these cells in vivo. Mice were injected in the footpads with 50 μg of fluorescently-labeled OVA conjugated to p(Man-TLR) or free non-conjugated fluorescently-labeled OVA. After 24 h, the draining lymph nodes of these animals were collected and processed into single cells suspensions. The lymphocytes were then analyzed via flow cytometry for the presence of the co-stimulatory molecule markers CD86 and CD80 on APCs. […] Furthermore, CD11c+ cells that had taken up OVA-p(Man-TLR) conjugates (i.e., Protein+CD11c+ cells) had higher levels of expression of CD80 and CD86 as compared to the expression of CD80 and CD86 on the total CD11c+ population of mice treated with OVA-p(Man-TLR)."}, "B16F10/OVA tumors": {"test_system": "B16F10/OVA tumors", "test": "Example 13: cancer vaccination in mice bearing B16F10/OVA tumors", "format": "in vivo, C57BL/6 mice", "protocol": "In order to determine if OVA-p(Man-TLR) conjugates could inhibit the growth of OVA-expressing tumors, mice bearing B16F10/OVA tumors (that is, B16F10 melanoma cells expressing the xeno-antigen OVA as a model tumor antigen) were treated with OVA-p(Man-TLR). 10^5 B16F10/OVA cells were inoculated subcutaneously (s.c.) between the scapulae in C57BL/6 mice on day 0 and left to engraft and grow for 4 days. On day 4, 7, and 14, mice were administered saline or vaccinated with OVA-p(Man-TLR) or OVA and free p(Man-TLR). Animals treated with OVA received 10 μg OVA and 40 μg of TLR."}, "[2]": {"test_system": "OVA-specific immune response", "test": "Example 11: in vivo immune response after footpad vaccination with OVA formulations", "parameters": "species or system mice", "protocol": "FIG. 14: Mice were vaccinated at day 0 and day 28 with 10 μg OVA equivalent of the various forms and combinations shown, and were sacrificed on day 35 for analysis. The intensity of the CD8+ T cell response was judged by measuring the frequency of […] (SEQ ID NO. 1) pentamer-binding cells.\nFIG. 15: Mice were vaccinated at day 0 and day 28 with 10 μg OVA equivalent of the various forms and combinations shown, and were sacrificed on day 35 for analysis. The cytokine responsiveness of cells in the LN was determined after antigen re-exposure. […] Separation of the formulation into its component parts was not effective: of particular note, free antigen mixed with but not conjugated to the p(Man-TLR) nanoadjuvant (OVA+pManTLR, yellow) was not nearly as effective, showing the need for the conjugate.\nFIG. 16: The humoral response to vaccination was characterized by measuring the frequency of antibody-producing plasma cells and the frequency of Tfh cells in the spleen, and the antibody titers in the blood.\nMice were vaccinated in the four footpads on day 0 and 28 with either OVA-p(Man-TLR), OVA and mTLR, OVA conjugated to p(Man) (OVA-p(Man)) and mTLR, OVA+p(Man-TLR) or just p(Man-TLR). Animals treated with formulations containing OVA received 10 μg of OVA in its free or conjugated form, and animals treated with formulations containing TLR received 30 μg of TLR in its free or […] form. The animals were sacrificed on day 35 and the spleens and lymph nodes were analyzed for the resulting immune response."}, "[3]": {"test_system": "OVA-specific immune response", "test": "OVA vaccination day 0 and 28, T cell response after restimulation", "format": "in vivo, mice", "protocol": "as §1\nGiven the ability of p(Man-TLR) to activate BMDCS and target tethered proteins to various DC-subsets, mice were treated with OVA-p(Man-TLR) and the OVA-specific immune response was analyzed. Animals were treated on day 0 and 28 with an i.d. injection of OVA-p(Man-TLR), OVA-p(Man)+TLR7-MA, OVA and unconjugated p(Man-TLR), p(Man-TLR), or OVA+CpG. Mice receiving formulations that contained either free or polymer-conjugated OVA were treated with 10 μg of OVA on days 0 and 28. Mice treated with formulations containing either TLR7-MA or p(man-TLR) either free or OVA conjugated received 30 μg of TLR7-agonist as TLR7-MA or the total weight of TLR7-MA monomer units in the polymer on days 0 and 28. Mice treated with OVA and CPG received 30 μg of CPG on days 0 and 28. After 35 days, the lymphocytes from the spleen and lymph node were harvested and restimulated with either whole OVA or the CD8 immunodominant peptide […]."}}}
{"substance": "OVA-p(Man-TLR): model antigen ovalbumin (OVA) conjugated to p(Man-TLR) via self-immolative linker", "values": [{"measurement": "total OVA-specific IgG and IgG2C titers vs other vaccine formulations", "setting": "[1]; blood of vaccinated animals", "value": "significant increase in both total IgG and IgG2C titers"}, {"measurement": "increase in number of IgG-producing plasma cells vs OVA+p(Man-TLR) or other formulations", "setting": "[1]; day 35, spleen, FIG. 11C", "value": "more than 2 fold"}, {"measurement": "percentage of Tfh in lymph node and spleen vs other treatments", "setting": "[1]; day 35, vaccination on days 0 and 28", "value": "significantly increases the percentage of Tfh in the lymph node and spleen"}, {"measurement": "CD80 and CD86 expression on CD11c+ cells of draining lymph nodes vs free OVA", "setting": "DCs (CD11c+ cells)", "value": "express significantly more CD80 and CD86"}, {"measurement": "growth of B16/OVA tumors", "setting": "B16F10/OVA tumors; treated day 4, 7 and 14, 10 μg OVA and 40 μg of TLR", "value": "capable of inhibiting the growth of B16/OVA tumors"}, {"measurement": "pentamer+CD8+ cells in the draining lymph nodes vs OVA+p(Man-TLR)", "setting": "B16F10/OVA tumors; tumor-bearing mice", "value": "induced significantly more pentamer+CD8+ cells in the draining lymph nodes"}, {"measurement": "percentage of OVA pentamer+ cells in the draining lymph nodes", "setting": "B16F10/OVA tumors; tumor-bearing mice, FIG. 20", "value": "increased the percentage of OVA pentamer+ cells in the draining lymph nodes"}, {"measurement": "OVA-specific total IgG vs non-conjugate vaccine (OVA+pMan-TLR)", "setting": "[2]; FIG. 16", "value": "elevated by more than an order of magnitude"}, {"measurement": "CD8+ and CD4+ T cells positive for both TNFα and IFNγ upon restimulation vs other treatments", "setting": "[2]; day 35", "value": "significantly more CD8+ and CD4+ T cells that are positive for both the proinflammatory cytokines TNFα and IFNγ"}, {"measurement": "OVA-specific antibodies in the blood vs other treatments", "setting": "[2]; day 35", "value": "significantly more OVA-specific antibodies in the blood"}, {"measurement": "splenic IgG producing plasma cells and T follicular helper cells vs other treatments", "setting": "[2]; day 35", "value": "significantly more splenic IgG producing plasma cells and T follicular helper cells"}, {"measurement": "OVA pentamer+ cells in lymph nodes and spleens vs other therapies", "setting": "[2]; footpads day 0 and 28, 10 μg OVA, 30 μg TLR, day 35", "value": "significantly more OVA pentamer+ cells in the lymph nodes and spleens"}, {"measurement": "IFNγ+CD4+ T cells after restimulation vs other treatments", "setting": "[3]; i.d. day 0 and 28, 10 μg OVA, 30 μg TLR7-agonist, day 35", "value": "significantly more IFNγ+CD4+ T cells"}, {"measurement": "IFNγ+CD8 T cells in the lymph nodes vs OVA-p(Man)+TLR7-MA and OVA+CpG", "setting": "[3]; i.d. day 0 and 28, day 35", "value": "increased the number of IFNγ+CD8 T cells in the lymph nodes"}, {"measurement": "TNFα positive CD8+ and CD4+ T cells in restimulated splenocytes vs other TLR7-MA or p(Man-TLR) formulations", "setting": "[3]; i.d. day 0 and 28, day 35", "value": "significantly increased the number of CD8+ and CD4+ T cells that are positive for TNFα"}]}
